Data on one cell line can be found in the supplement of paper PMC10307832.

What all share (assay): relative viability (nuclei count vs DMSO), 5 days (fraction); higher = more cells survive
Compound in assay [1]: CN1CCN(CC1)C2=CC(=C(C=C2)NC3=NC(=C(S3)C(=O)C4=C(C=CC=C4Cl)Cl)N)OC [XMD14-99] + Nc1ncn([C@H]2C[C@H](O)[C@@H](CO)O2)c(=O)n1 [Decitabine] (partner 2 µM)
The procedure, abridged: (§1)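 For relative viability, nuclei counts in treated wells were divided by those in vehicle wells. Lung cancer cell lines had been pin-tool dosed in 1536-well plates the day after seeding and cultured for 5 days, then fixed and stained in one step (final 0.05% Triton X-100, 1% formaldehyde, 1 ug/ml Hoechst) and imaged at 4×. Doses were one drug alone or a fixed anchor-drug dose plus five library-drug doses (not always all listed) in √10 steps, and values are duplicate-plate medians.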

Compound in assay [2]: N[C@@H]1CCCN(c2c(/C=C3\SC(=O)NC3=O)cccc2-c2ccccc2)C1 [AZD1208] + C[C@@H](Oc1cc(-c2cnn(C3CCNCC3)c2)cnc1N)c1c(Cl)ccc(F)c1Cl [Crizotinib] (partner 1 µM)
Put shortly: as §1

Compound in assay [3]: N[C@@H]1CCCN(c2c(/C=C3\SC(=O)NC3=O)cccc2-c2ccccc2)C1 [AZD1208] + C[C@]1(O)C[C@@H](c2nc(-c3ccc4ccc(-c5ccccc5)nc4c3)c3c(N)nccn32)C1 [Linsitinib] (partner 1 µM)
Put shortly: as §1

Compound in assay [4]: N[C@@H]1CCCN(c2c(/C=C3\SC(=O)NC3=O)cccc2-c2ccccc2)C1 [AZD1208] + Cc1nc(NC(=O)N2CCC[C@H]2C(N)=O)sc1-c1ccnc(C(C)(C)C(F)(F)F)c1 [Alpelisib] (partner 2 µM)
Put shortly: as §1

As to UMC-11, the relative viability in assay [1] (first compound 0.08 µM) was determined as 0.573; in assay [1] (first compound 0.8 µM) it was 0.667; in assay [1] (first compound 2.53 µM), 0.626; in assay [1] (first compound 8 µM), 0.589; in assay [2] (first compound 0.08 µM) it was 0.553; in assay [2] (first compound 0.253 µM) it was 0.502. Also, the relative viability came out at 0.426 in assay [2] (first compound 0.8 µM); 0.426 in assay [2] (first compound 2.53 µM); 0.275 in assay [2] (first compound 8 µM); 0.909 in assay [3] (first compound 0.08 µM); 0.767 in assay [3] (first compound 0.253 µM); 0.772 in assay [3] (first compound 0.8 µM). The relative viability in assay [3] (first compound 2.53 µM) was found to be 0.67; in assay [3] (first compound 8 µM), 0.558; in assay [4] (first compound 0.08 µM) it was 0.757; in assay [4] (first compound 0.253 µM) it was 0.908; in assay [4] (first compound 0.8 µM), 0.746; in assay [4] (first compound 2.53 µM) it was 0.77. Besides, the relative viability in assay [4] (first compound 8 µM) was determined as 0.488.
